# Source: PMC8185074, “Anchor extension: a structure-guided approach to design cyclic peptides targeting enzyme active sites” (Nature Communications, 2021)
# Peptide text beside a SMILES is read from it.
# Assays:
# Format in all cases: biochemical
# HDAC6 = biological target: T1, HDAC6 (Homo sapiens, UniProt Q9UBN7); test: HDAC6 inhibition, full IC50 measurement (Reaction Biology; fluorogenic p53 peptide RHKK(Ac)AMC)
# T1 construct: purchased Reaction Biology Corporation (assay run by the CRO)
# T1 sequence (Q9UBN7 1-1215): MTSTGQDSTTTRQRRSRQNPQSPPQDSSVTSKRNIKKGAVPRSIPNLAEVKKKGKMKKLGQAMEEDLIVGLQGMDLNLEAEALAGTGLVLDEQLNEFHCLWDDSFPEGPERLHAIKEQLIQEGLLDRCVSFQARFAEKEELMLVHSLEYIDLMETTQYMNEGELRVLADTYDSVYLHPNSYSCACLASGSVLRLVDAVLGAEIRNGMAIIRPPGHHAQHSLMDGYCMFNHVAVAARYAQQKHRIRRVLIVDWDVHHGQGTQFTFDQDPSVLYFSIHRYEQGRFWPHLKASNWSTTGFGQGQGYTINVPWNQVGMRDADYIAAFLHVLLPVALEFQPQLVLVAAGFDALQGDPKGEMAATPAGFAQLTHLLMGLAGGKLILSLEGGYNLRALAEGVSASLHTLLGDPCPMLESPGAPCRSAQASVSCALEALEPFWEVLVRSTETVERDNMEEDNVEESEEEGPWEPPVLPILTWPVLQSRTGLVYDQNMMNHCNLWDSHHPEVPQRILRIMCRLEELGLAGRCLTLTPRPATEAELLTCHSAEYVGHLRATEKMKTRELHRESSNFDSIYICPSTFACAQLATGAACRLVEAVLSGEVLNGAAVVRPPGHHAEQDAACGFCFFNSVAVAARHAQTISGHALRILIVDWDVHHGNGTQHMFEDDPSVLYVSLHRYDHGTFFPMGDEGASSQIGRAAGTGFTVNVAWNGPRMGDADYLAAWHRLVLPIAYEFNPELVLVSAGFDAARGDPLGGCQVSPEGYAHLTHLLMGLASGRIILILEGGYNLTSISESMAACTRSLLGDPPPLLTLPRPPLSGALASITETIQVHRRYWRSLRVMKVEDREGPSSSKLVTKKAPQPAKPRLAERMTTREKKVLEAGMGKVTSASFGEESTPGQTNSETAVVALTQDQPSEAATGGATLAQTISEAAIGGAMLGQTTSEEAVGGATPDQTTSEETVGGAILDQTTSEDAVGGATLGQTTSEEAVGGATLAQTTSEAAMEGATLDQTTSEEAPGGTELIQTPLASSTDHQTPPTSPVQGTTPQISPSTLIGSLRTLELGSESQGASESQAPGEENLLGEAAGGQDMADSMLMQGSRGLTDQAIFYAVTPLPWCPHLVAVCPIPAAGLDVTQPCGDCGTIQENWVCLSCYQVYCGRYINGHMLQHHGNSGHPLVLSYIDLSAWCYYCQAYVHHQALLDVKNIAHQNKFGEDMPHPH
# Outline: (§1)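 Inhibitory peptides were acoustically dispensed with enzyme, then substrate added; 1 h at 30 °C. Developer stopped reaction; plateau endpoint fluorescence (360/460 nm) gave IC50.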
# HDAC1 = biological target: T2, HDAC1 (Homo sapiens, UniProt Q13547); test: HDAC1 inhibition, full IC50 measurement (Reaction Biology; fluorogenic p53 peptide RHKK(Ac)AMC); details: t1/t2 replicates
# T2 construct: purchased Reaction Biology Corporation (assay run by the CRO)
# T2 sequence (Q13547 whole entry): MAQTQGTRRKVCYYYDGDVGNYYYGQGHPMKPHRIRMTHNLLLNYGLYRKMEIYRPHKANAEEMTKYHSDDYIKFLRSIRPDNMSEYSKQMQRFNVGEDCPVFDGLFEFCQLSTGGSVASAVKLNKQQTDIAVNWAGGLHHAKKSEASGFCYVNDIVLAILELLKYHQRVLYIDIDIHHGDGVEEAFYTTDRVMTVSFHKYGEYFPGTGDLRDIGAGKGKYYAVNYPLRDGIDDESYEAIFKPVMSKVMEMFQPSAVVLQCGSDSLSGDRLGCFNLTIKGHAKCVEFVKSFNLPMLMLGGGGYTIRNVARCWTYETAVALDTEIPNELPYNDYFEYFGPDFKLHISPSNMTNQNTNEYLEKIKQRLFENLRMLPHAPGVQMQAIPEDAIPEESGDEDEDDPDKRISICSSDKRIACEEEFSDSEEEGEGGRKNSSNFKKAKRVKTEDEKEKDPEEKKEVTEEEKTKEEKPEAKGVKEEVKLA
# Outline: as §1
# HDAC8 = biological target: T3, HDAC8 (Homo sapiens, UniProt Q9BY41); test: HDAC8 inhibition, full IC50 measurement (Reaction Biology; fluorogenic p53 peptide RHKK(Ac)AMC); details: t1/t2 replicates
# T3 construct: purchased Reaction Biology Corporation (assay run by the CRO)
# T3 sequence (Q9BY41 1-377): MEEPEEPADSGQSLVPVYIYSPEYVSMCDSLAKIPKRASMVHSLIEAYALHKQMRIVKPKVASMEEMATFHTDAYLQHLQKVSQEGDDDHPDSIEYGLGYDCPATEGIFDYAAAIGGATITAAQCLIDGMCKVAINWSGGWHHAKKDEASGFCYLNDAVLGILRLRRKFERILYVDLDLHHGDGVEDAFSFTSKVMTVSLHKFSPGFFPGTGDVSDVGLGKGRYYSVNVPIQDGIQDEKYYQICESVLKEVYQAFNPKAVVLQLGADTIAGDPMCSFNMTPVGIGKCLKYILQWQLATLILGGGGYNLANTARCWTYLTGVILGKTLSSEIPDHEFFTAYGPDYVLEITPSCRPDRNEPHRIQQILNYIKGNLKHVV
# Outline: as §1
# [1] = peptide conc. 1.00E-05 M, listed as des2.1.1_t1
# [2] = peptide conc. 1.00E-05 M, listed as des2.1.1_t2
# [3] = peptide conc. 1.11E-06 M, listed as des2.1.1_t1
# [4] = peptide conc. 1.11E-06 M, listed as des2.1.1_t2
# [5] = peptide conc. 1.23E-07 M, listed as des2.1.1_t1
# [6] = peptide conc. 1.23E-07 M, listed as des2.1.1_t2
# [7] = peptide conc. 1.37E-08 M, listed as des2.1.1_t1
# [8] = peptide conc. 1.37E-08 M, listed as des2.1.1_t2
# [9] = peptide conc. 1.52E-09 M, listed as des2.1.1_t1
# [10] = peptide conc. 1.52E-09 M, listed as des2.1.1_t2
# [11] = peptide conc. 3.33E-06 M, listed as des2.1.1_t1
# [12] = peptide conc. 3.33E-06 M, listed as des2.1.1_t2
# [13] = peptide conc. 3.70E-07 M, listed as des2.1.1_t1
# [14] = peptide conc. 3.70E-07 M, listed as des2.1.1_t2
# [15] = peptide conc. 4.12E-08 M, listed as des2.1.1_t1
# [16] = peptide conc. 4.12E-08 M, listed as des2.1.1_t2
# [17] = peptide conc. 4.57E-09 M, listed as des2.1.1_t1
# [18] = peptide conc. 4.57E-09 M, listed as des2.1.1_t2
# [19] = peptide conc. 5.08E-10 M, listed as des2.1.1_t1
# [20] = peptide conc. 5.08E-10 M, listed as des2.1.1_t2
compound,measurement,setting,value
"CSCC[C@H]1NC(=O)[C@@H](CO)NC(=O)[C@H](CC(N)=O)NC(=O)[C@H](CC(=O)O)NC(=O)[C@@H]([C@H](C)O)NC(=O)[C@H](Cc2c[nH]c3ccccc23)NC(=O)[C@H](CCCCCS)NC(=O)[C@H](CCCCN)NC(=O)[C@@H](CC(=O)O)NC1=O [des2.1.1, SHA-Trp-dThr-Asp-Asn-dSer-dMet-dAsp-Lys] (HELM PEPTIDE1{D.N.[dS].[dM].[dD].K.[O=C([C@H](CCCCCS)N[*:1])[*:2]].W.[dT]}$PEPTIDE1,PEPTIDE1,1:R1-9:R2$$$V2.0)",HDAC6 activity raw data (signal),"HDAC6; Conc. 1.00E-05 M, t1",-77
same,HDAC6 activity raw data (signal),"HDAC6; Conc. 1.00E-05 M, t2",-1621
same,HDAC6 activity raw data (signal),"HDAC6; Conc. 1.11E-06 M, t1",12750
same,HDAC6 activity raw data (signal),"HDAC6; Conc. 1.11E-06 M, t2",10889
same,HDAC6 activity raw data (signal),"HDAC6; Conc. 1.23E-07 M, t1",59972
same,HDAC6 activity raw data (signal),"HDAC6; Conc. 1.23E-07 M, t2",56137
same,HDAC6 activity raw data (signal),"HDAC6; Conc. 1.37E-08 M, t1",194975
same,HDAC6 activity raw data (signal),"HDAC6; Conc. 1.37E-08 M, t2",185826
same,HDAC6 activity raw data (signal),"HDAC6; Conc. 1.52E-09 M, t1",455139
same,HDAC6 activity raw data (signal),"HDAC6; Conc. 1.52E-09 M, t2",435218
same,HDAC6 activity raw data (signal),"HDAC6; Conc. 3.33E-06 M, t1",6654
same,HDAC6 activity raw data (signal),"HDAC6; Conc. 3.33E-06 M, t2",2213
same,HDAC6 activity raw data (signal),"HDAC6; Conc. 3.70E-07 M, t1",27729
same,HDAC6 activity raw data (signal),"HDAC6; Conc. 3.70E-07 M, t2",16335
same,HDAC6 activity raw data (signal),"HDAC6; Conc. 4.12E-08 M, t1",104749
same,HDAC6 activity raw data (signal),"HDAC6; Conc. 4.12E-08 M, t2",101798
same,HDAC6 activity raw data (signal),"HDAC6; Conc. 4.57E-09 M, t1",322592
same,HDAC6 activity raw data (signal),"HDAC6; Conc. 4.57E-09 M, t2",306483
same,HDAC6 activity raw data (signal),"HDAC6; Conc. 5.08E-10 M, t1",505663
same,HDAC6 activity raw data (signal),"HDAC6; Conc. 5.08E-10 M, t2",482059
same,HDAC1 activity raw data (signal),HDAC1; [1],-3296
same,HDAC1 activity raw data (signal),HDAC1; [2],-5
same,HDAC1 activity raw data (signal),HDAC1; [3],15027
same,HDAC1 activity raw data (signal),HDAC1; [4],19517
same,HDAC1 activity raw data (signal),HDAC1; [5],121250
same,HDAC1 activity raw data (signal),HDAC1; [6],94143
same,HDAC1 activity raw data (signal),HDAC1; [7],426941
same,HDAC1 activity raw data (signal),HDAC1; [8],417070
same,HDAC1 activity raw data (signal),HDAC1; [9],888087
same,HDAC1 activity raw data (signal),HDAC1; [10],854689
same,HDAC1 activity raw data (signal),HDAC1; [11],5417
same,HDAC1 activity raw data (signal),HDAC1; [12],8523
same,HDAC1 activity raw data (signal),HDAC1; [13],47109
same,HDAC1 activity raw data (signal),HDAC1; [14],41206
same,HDAC1 activity raw data (signal),HDAC1; [15],257706
same,HDAC1 activity raw data (signal),HDAC1; [16],221039
same,HDAC1 activity raw data (signal),HDAC1; [17],716596
same,HDAC1 activity raw data (signal),HDAC1; [18],664253
same,HDAC1 activity raw data (signal),HDAC1; [19],1042274
same,HDAC1 activity raw data (signal),HDAC1; [20],995234
same,HDAC8 activity raw data (signal),HDAC8; [1],964380
same,HDAC8 activity raw data (signal),HDAC8; [2],738285
same,HDAC8 activity raw data (signal),HDAC8; [3],17568030
same,HDAC8 activity raw data (signal),HDAC8; [4],18194235
same,HDAC8 activity raw data (signal),HDAC8; [5],56084359
same,HDAC8 activity raw data (signal),HDAC8; [6],53955732
same,HDAC8 activity raw data (signal),HDAC8; [7],68600267
same,HDAC8 activity raw data (signal),HDAC8; [8],68709597
same,HDAC8 activity raw data (signal),HDAC8; [9],73629892
same,HDAC8 activity raw data (signal),HDAC8; [10],68940487
same,HDAC8 activity raw data (signal),HDAC8; [11],6524465
same,HDAC8 activity raw data (signal),HDAC8; [12],5933628
same,HDAC8 activity raw data (signal),HDAC8; [13],36548840
same,HDAC8 activity raw data (signal),HDAC8; [14],38514186
same,HDAC8 activity raw data (signal),HDAC8; [15],62692187
same,HDAC8 activity raw data (signal),HDAC8; [16],60959948
same,HDAC8 activity raw data (signal),HDAC8; [17],71596500
same,HDAC8 activity raw data (signal),HDAC8; [18],73045422
same,HDAC8 activity raw data (signal),HDAC8; [19],76849547
same,HDAC8 activity raw data (signal),HDAC8; [20],76232042
